Reference: ChEMBL document CHEMBL3886937, “Pyrimidodiazepinone compound” (2016)

Test: [3H]-Gabapentin Binding Assay: A test compound (20 μL) diluted to 5 times of the final concentration with Binding buffer, [3H]-gabapentin diluted to 100 nmol/L with binding buffer [20 μL (final concentration 20 nmol/L)], and the rat cerebral cortex membrane fraction (60 μL; 12 μg membrane fraction) obtained in the (1) above were added to each well of a 96-well round-bottom plate. After being sufficiently mixed, these were allowed to react at room temperature for 1 hour. After the reaction, the reaction sample was suction filtered using a filter plate with 50 μL/well of 0.3 vol % polyethyleneimine added, and a cell harvester. The filter was then washed with ice-cooled Wash buffer (100 mmol/L NaCl, 0.1 w/v % BSA). After being washed, the filter plate was dried, and a scintillation cocktail (MicroScint-20, purchased from PerkinElmer) was added (50 μL/well), and the radioactivity on the filter was measured. The radioactivity obtained in the absence of the test compound was measured as total binding amount, and the radioactivity obtained by addition of an unlabeled gabapentin (final concentration 100 mmol/L) as a test compound was measured as non-specific binding amount.
With `CCNc1ncc2c(n1)N1CCC[C@H]1CN(c1scc3c(=O)n(C)cnc13)C2=O` the IC50 was 3 nM.
Molecule `CCNc1ncc2c(n1)N1CCC[C@H]1CN(c1cccc3c(=O)n(C)ccc13)C2=O` has an IC50 of 5 nM.
Work on `CNc1ncc2c(n1)N1CCC[C@H]1CN(c1cccc3c(=O)n(CCCN(C)C)cnc13)C2=O` yielded an IC50 of 1.2 nM.
`CNc1ncc2c(n1)N1CCC[C@H]1CN(c1c[nH]c3ncn(C)c(=O)c13)C2=O` showed an IC50 of 3.6 nM.
In the case of `CCNc1ncc2c(n1)N1CCC[C@H]1CN(c1cccc3c(=O)n(CCF)c(C)nc13)C2=O`, the IC50 is reported as 4.8 nM.
`CNc1ncc2c(n1)N1CCC[C@H]1CN(c1cccn3c(=O)c(C)c(C)nc13)C2=O` gave an IC50 of 4.7 nM.
`CCCNc1ncc2c(n1)N1CCC[C@H]1CN(c1cccc3c(=O)n(C)cnc13)C2=O` showed an IC50 of 3 nM.
`CCNc1ncc2c(n1)N1CCC[C@H]1CN(c1cccc3ncn(C)c(=O)c13)C2=O` gave an IC50 of 3.9 nM.
`CCNc1ncc2c(n1)N1CCC[C@H]1CN(c1c[nH]c3ncn(C)c(=O)c13)C2=O` gave an IC50 of 2.6 nM.
Work on `CCNc1ncc2c(n1)N1CCC[C@H]1CN(c1cccc3c(=O)n(CCCN(C)C)cnc13)C2=O` yielded an IC50 of 0.7 nM.
`CCNc1ncc2c(n1)N1CCC[C@H]1CN(c1cccc3c(=O)n(C)c(COC)nc13)C2=O` showed an IC50 of 3.8 nM.
`CCn1cnc2c(N3C[C@@H]4CCCN4c4nc(NC)ncc4C3=O)cccc2c1=O` gave an IC50 of 4 nM.
`CNc1ncc2c(n1)N1CCC[C@H]1CN(c1cccc3c(=O)n(C)cnc13)C2=O` showed an IC50 of 2.6 nM.
`CNc1ncc2c(n1)N1CCC[C@H]1CN(c1cncc3c(=O)n(C)cnc13)C2=O` showed an IC50 of 4.1 nM.
`CCNc1ncc2c(n1)N1CCC[C@H]1CN(c1cccn3c(=O)c(C)c(C)nc13)C2=O` showed an IC50 of 2.7 nM.
`CCNc1ncc2c(n1)N1CCC[C@H]1CN(c1cccc3c(=O)n(C)c(C)nc13)C2=O` gave an IC50 of 2.6 nM.
In the case of `CCNc1ncc2c(n1)N1CCC[C@H]1CN(c1cccn3c(=O)cc(C)nc13)C2=O`, the IC50 is reported as 5.2 nM.
